Test results from patent US20090227597A1, “PYRAZOLOPYRIMIDINONES AS PHOSPHODIESTERASE INHIBITORS” (CTG PHARMA S.R.L., priority 2004, published 2009).
Where a name gives a salt, the structure may show the parent alone.

How the values were obtained:
PDE5 enzyme = PDE5 enzyme (Homo sapiens, UniProt O76074); assay: in vitro inhibition of cGMP PDE5; format: biochemical
Description: The compounds of the present invention have been tested in vitro and found to be potent and selective inhibitors of cGMP PDE5.

melting point | IC50 (PDE5 enzyme) | Compound
166 to 168 °C |  | CCCc1nn(C)c2c(=O)[nH]c(-c3cc(S(=O)(=O)N4CCN(CC(=O)N[C@@H](CS)C(=O)O)CC4)ccc3OCC)nc12 (as salt: salt) (hydrate or solvate) [Example 2, sildenafil analog amide with cysteine]
188 to 189 °C | 6.8 to 7.2 nM | CCCc1nn(C)c2c(=O)[nH]c(-c3cc(S(=O)(=O)N4CCN(CC(=O)Oc5ccc(-c6cc(=S)ss6)cc5)CC4)ccc3OCC)nc12 [Example 1, sildenafil analog ester with 5-(p-hydroxyphenyl)-3H-1,2-dithiol-3-thione]
 | 6.8 to 7.2 nM | CCCc1nn(C)c2c(=O)[nH]c(-c3cc(S(=O)(=O)N4CCN(CC(=O)N[C@@H](CS)C(=O)O)CC4)ccc3OCC)nc12 [Example 2, sildenafil analog amide with cysteine]
